{
  "source": "patent US7105663B2",
  "about": "“Derivatives of pyrimido[6,1-a]isoquinolin-4-one” (Rhinopharma Limited, priority 1999, dated 2006)",
  "key": {"[1]": {"test_system": "LPS induced TNF-α release from human monocytes", "test": "LPS induced TNF-α release from human monocytes", "assay_type": "cell-based", "conditions": "Monocyte"}, "[2]": {"test_system": "histamine induced bronchospasm", "test": "Histamine induced bronchospasm in guinea-pigs after dry powder exposure", "assay_type": "in vivo, guinea-pig", "conditions": "dry powder 2.5 and 25% in lactose, over a 5.5 hour period", "protocol": "1. The compound of Example 1, 9,10-Dimethoxy-2-(2,4,6-trimethylphenylimino)-3-(N-carbamoyl-2-aminoethyl)-3,4,6,7-tetrahydro-2H-pyrimido[6,1-a]isoquinolin-4-one, was tested in a model of histamine induced bronchospasm. Conscious guinea-pigs were exposed to dry powder (micronised) compound. The drug was blended with lactose so that the final concentration was 0.25, 2.5 and 25%. At various times after exposure to drug the animals were anaesthetised and challenged with varying doses of histamine. Total airway resistance and mean arterial blood pressure were recorded."}, "[3]": {"test_system": "human mononuclear cells stimulated by PHA", "test": "Proliferation of human mononuclear cells stimulated by PHA ([3H]-thymidine)", "assay_type": "cell-based", "protocol": "Normal healthy volunteers underwent phlebotomy and 25 ml of blood was collected. Mononuclear cells were separated and purified according to the method of Banner et al (Banner et al Br. J. Pharmacol. 116 3169–3174 (1995)). Human peripheral mononuclear cells (100,000 per well) were stimulated for 24 h with phytohaemagglutinin (PHA, 2 μ/ml) in the absence or presence of the compound of Example 1 (0.001–100 μM) at 37° C. in a 95% air, 5% CO2 atmosphere. Twenty four hours later, [3H]-thymidine (0.1 μCi) was added to each well and the cells were incubated for a further 24 h period. Cells were then harvested onto glass fibre filters using a cell harvester (ICN Flow, Buckinghamshire) and counted in a scintillation counter."}, "[4]": {"test_system": "recruitment of eosinophils to the lungs", "test": "Antigen induced eosinophilia in the ovalbumin sensitised guinea-pig", "assay_type": "in vivo", "protocol": "3. […] Further experiments were carried out to characterise the duration of action in this model."}, "[5]": {"test": "Intravenous administration to urethane anaesthetised guinea-pigs, mean arterial blood pressure", "assay_type": "in vivo, guinea-pig", "conditions": "intravenous 1 to 100 μg/kg, evidence that the compound had come out of solution", "protocol": "2. […] The compound was dissolved in DMSO then diluted with saline (there was evidence that the compound had come out of solution)."}, "PDE3 (human platelet)": {"molecular_target": "T1, PDE3 (human platelet) (Homo sapiens, UniProt Q14432)", "T1 construct": "(human platelet); from tissue; host or cells: human platelets", "T1 sequence (Q14432 whole entry)": "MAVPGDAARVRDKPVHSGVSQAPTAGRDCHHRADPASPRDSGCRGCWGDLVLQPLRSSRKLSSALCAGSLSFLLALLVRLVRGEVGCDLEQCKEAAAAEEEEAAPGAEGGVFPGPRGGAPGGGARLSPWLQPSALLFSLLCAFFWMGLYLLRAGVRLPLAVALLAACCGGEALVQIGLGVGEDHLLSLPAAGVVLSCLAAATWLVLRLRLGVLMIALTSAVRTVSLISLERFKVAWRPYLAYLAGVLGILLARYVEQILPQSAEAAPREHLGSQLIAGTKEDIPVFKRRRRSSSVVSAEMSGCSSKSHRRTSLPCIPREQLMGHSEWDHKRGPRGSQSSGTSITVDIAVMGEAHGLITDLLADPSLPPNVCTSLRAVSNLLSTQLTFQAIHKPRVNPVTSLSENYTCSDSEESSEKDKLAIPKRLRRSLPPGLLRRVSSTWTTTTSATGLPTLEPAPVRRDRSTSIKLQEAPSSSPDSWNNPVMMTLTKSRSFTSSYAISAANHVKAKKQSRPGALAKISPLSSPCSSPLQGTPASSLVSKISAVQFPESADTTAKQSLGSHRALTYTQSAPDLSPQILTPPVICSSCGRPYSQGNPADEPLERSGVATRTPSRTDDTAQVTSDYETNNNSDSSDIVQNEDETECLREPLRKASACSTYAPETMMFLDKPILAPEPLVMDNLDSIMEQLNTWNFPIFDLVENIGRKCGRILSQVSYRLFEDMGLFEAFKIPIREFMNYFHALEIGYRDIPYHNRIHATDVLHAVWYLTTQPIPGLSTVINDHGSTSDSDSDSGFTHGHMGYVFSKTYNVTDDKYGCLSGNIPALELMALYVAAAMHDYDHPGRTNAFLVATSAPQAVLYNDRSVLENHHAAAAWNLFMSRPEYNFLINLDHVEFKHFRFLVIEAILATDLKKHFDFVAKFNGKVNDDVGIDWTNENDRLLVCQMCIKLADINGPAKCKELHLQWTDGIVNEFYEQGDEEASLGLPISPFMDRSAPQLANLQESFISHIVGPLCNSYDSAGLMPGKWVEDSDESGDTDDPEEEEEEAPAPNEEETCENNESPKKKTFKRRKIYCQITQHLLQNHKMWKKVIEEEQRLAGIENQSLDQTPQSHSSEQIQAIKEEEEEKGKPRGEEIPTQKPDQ", "test": "Inhibition of phosphodiesterase (PDE) type 3 isoenzyme", "assay_type": "biochemical"}, "PDE4 (human neutrophil)": {"test_system": "PDE4 (human neutrophil)", "test": "Inhibition of phosphodiesterase (PDE) type 4 isoenzyme", "assay_type": "biochemical"}, "[6]": {"test_system": "guinea-pig isolated trachea", "test": "Electrical-induced contraction of guinea-pig isolated trachea (superfused tracheal rings, electrical field stimulation)", "conditions": "10 μM", "protocol": "Superfusion of guinea-pig tracheal rings was performed according to a previously described method (Coleman et al. 1996; Pulmonary Pharmacology, 9, 107–117). Briefly, guinea-pig tracheal preparations were cut into rings then opened by sectioning the ring opposite the smooth muscle and suspended between two platinum electrodes under 1 g tension. The tissues were superfased at a rate of 3.25 ml/min with Krebs-Henseleit solution at 37° C. containing the cyclooxygenase inhibitor, indomethacin (5 μM) and bubbled with 95% O2 and 5% CO2. Tracheal preparations were allowed to equilibrate for 40 min before commencement of electrical stimulation delivered as a 10 s train of square wave pulses at 3 Hz, 0.1 ms duration and 20V (approx. 400 mAmps) generated every 100 sec by means of physiological square wave-stimulator.\nThe compound of Example 1 was dissolved in DMSO containing Tween 80 (10%) and distilled water (0.01 M), which were then added to the organ bath to give a final concentration of 10 μM. The other compounds were prepared in DMSO and diluted in Krebs-Henseleit solution which yielded a final superfusion concentration of 0.05% DMSO, and superfused at a rate of 0.3 ml/min; contractile responses to electrical field stimulation was recorded on a Macintosh computer using MacLab software."}},
  "note": "pIC50: −log10 of the molar value.",
  "data": [
    {"smiles": "COc1ccc([C@H](Cc2ccncc2)c2ccccc2)cc1OC1CCCC1", "note": "[CDP 840]", "values": [
      {"measurement": "pIC50", "setting": "[1]; n = 6", "result": 7.04}
    ]},
    {"smiles": "COc1cc2c(cc1OC)-c1c/c(=N\\c3c(C)cc(C)cc3C)n(CCNC(N)=O)c(=O)n1CC2", "note": "[Example 1, 9,10-Dimethoxy-2-(2,4,6-trimethylphenylimino)3-(N-carbamoyl-2-aminoethyl)-3,4,6,7-tetrahydro-2H-pyrimido[6,1-a]isoquinolin-4-one]", "values": [
      {"measurement": "protection against histamine induced bronchospasm", "setting": "[2]; conscious guinea-pigs", "result": "significant protection"},
      {"measurement": "mean blood pressure", "setting": "[2]; guinea-pigs", "result": "reduced mean blood pressure"},
      {"measurement": "proliferation of human mononuclear cells stimulated by PHA", "setting": "[3]; 0.001–100 μM", "result": "significantly inhibited"},
      {"measurement": "pIC50", "setting": "[3]; Homo sapiens, 95% confidence limits in brackets, n=6, read-out: IC50 against proliferation of human mononuclear cells stimulated with PHA", "result": 6.34},
      {"measurement": "recruitment of eosinophils to the lungs following antigen challenge", "setting": "[4]; 10 mg/kg orally 1 hour prior to antigen challenge", "result": "significantly inhibited"},
      {"measurement": "recruitment of eosinophils to the lungs following antigen challenge", "setting": "[4]; dry powder (25%) 1.5 hours prior to antigen challenge, measured 24 hours after challenge", "result": "significantly inhibited"},
      {"measurement": "recruitment of eosinophils to the lungs following antigen challenge", "setting": "[4]; dry powder (25%) 5.5 hours before antigen challenge", "result": "failed to significantly inhibit"},
      {"measurement": "mean arterial blood pressure", "setting": "[5]", "result": "dose dependant reduction"},
      {"measurement": "pIC50", "setting": "PDE3 (human platelet)", "result": 9.37},
      {"measurement": "pIC50", "setting": "[1]; n = 6", "result": 8.12},
      {"measurement": "pIC50", "setting": "PDE4 (human neutrophil)", "result": 5.83},
      {"measurement": "effect on contractile responses (electrical-induced contraction of guinea-pig isolated trachea)", "setting": "[6]", "result": "inhibit the contractile responses with a long duration of action"}
    ]},
    {"smiles": "COc1cc2c(cc1OC)-c1c/c(=N\\c3c(C)cc(C)cc3C)n(CCN/C(N)=N/[N+](=O)[O-])c(=O)n1CC2", "note": "[Example 8, 9,10-Dimethoxy-3-[N-(N′-nitro)-2-guanidinoethyl]-2-(2,4,6-trimethylphenylimino)-3,4,6,7-tetrahydro-2H-pyrimido[6,1-a]isoquinolin-4-one]", "values": [
      {"measurement": "effect on contractile responses (electrical-induced contraction of guinea-pig isolated trachea)", "setting": "[6]", "result": "inhibit the contractile responses with a long duration of action"}
    ]},
    {"smiles": "COc1cc2c(cc1OC)-c1c/c(=N\\c3c(C)cc(C)cc3C)n(CCNC(=O)NC3CCCCC3)c(=O)n1CC2", "note": "[Example 9]", "values": [
      {"measurement": "effect on contractile responses (electrical-induced contraction of guinea-pig isolated trachea)", "setting": "[6]", "result": "inhibit the contractile responses with a long duration of action"}
    ]},
    {"smiles": "COc1cc2c(cc1OC)-c1c/c(=N\\c3ccccc3C)n(CCNC(N)=O)c(=O)n1CC2", "note": "[Example 10, 3-(N-Carbamoyl-2-aminoethyl)-9,10-dimethoxy-2-(2-methylphenylimino)-3,4,6,7-tetrahydro-2H-pyrimido[6,1-a]isoquinolin-4-one]", "values": [
      {"measurement": "effect on contractile responses (electrical-induced contraction of guinea-pig isolated trachea)", "setting": "[6]", "result": "inhibit the contractile responses with a long duration of action"}
    ]},
    {"smiles": "COc1cc2c(cc1OC)-c1c/c(=N\\c3c(C(C)C)cccc3C(C)C)n(CCNC(N)=O)c(=O)n1CC2", "note": "[Example 11]", "values": [
      {"measurement": "effect on contractile responses (electrical-induced contraction of guinea-pig isolated trachea)", "setting": "[6]", "result": "inhibit the contractile responses with a long duration of action"}
    ]},
    {"smiles": "CN/C(=N\\C#N)NCCn1c(=O)n2c(c/c1=N\\c1c(C)cc(C)cc1C)-c1cc(OC)c(OC)cc1CC2", "note": "[Example 13, 3-[N-(N′-Cyano-N″-methyl)-2-guanidinoethyl]-9,10-dimethoxy-2-(2,4,6-trimethyl-phenylimino)-3,4,6,7-tetrahydro-2H-pyrimido[6,1-a]isoquinolin-4-one]", "values": [
      {"measurement": "effect on contractile responses (electrical-induced contraction of guinea-pig isolated trachea)", "setting": "[6]", "result": "inhibit the contractile responses with a long duration of action"}
    ]},
    {"smiles": "CN/C(=N\\c1ccc(C2=NNC(=O)CC2C)cc1)NC#N", "note": "(stereo not shown) [Siguazodan]", "values": [
      {"measurement": "pIC50", "setting": "[1]", "result": "< 4.00"}
    ]}
  ]
}
